How the values were obtained:
[1] = Oral bioavailability estimated from bradycardia AUC oral vs intravenous in conscious rats; type: in vivo, rat; details: male, Sprague-Dawley, rat, in vivo
Text: Concentration dose-effect curve data were fitted to a sigmoid curve using Graphpad PRIZM™ software to obtain the concentration or dose of test compound that produces 50% of the maximal obtainable response, in vitro EC50 or in vivo ED50 values, for activation of the adenosine A1 receptor. Responses measured to each dose were the plateau negative inotropic response to cumulative additions of test compound in the isolated left atria and the peak bradycardia in response to bolus intravenous injections of test compound in conscious rats. Oral bioavailability was estimated from pharmacodynamic responses using the expression: (Response AUCoral/Response AUCiv)(Doseiv/Doseoral), where Response AUC is the area under the curve for test compound-induced bradycardia over time.
Male Sprague-Dawley rats were anesthetized with sodium pentobarbital 50 mg/kg i.p., and indwelling catheters were surgically implanted in the carotid artery and jugular vein two days prior to each experiment. During all subsequent experiments, rats were conscious and unrestrained. The carotid artery cannula was attached to a pressure transducer and blood pressure was recorded continuously throughout each experiment using a Grass polygraph. Heart rate was derived from the blood pressure signal using a Grass tachygraph. The measured parameters were allowed from 30 to 90 minutes to stabilize before the administration of test compound.
Test compounds were administered either by oral gavage using a curved, bulbed oral dosing cannula, or by intravenous administration via the jugular vein indwelling catheter. Rats dosed orally were fasted overnight before dosing, with water available ad libitum. Because the heart rate responses following intravenous administration of test compound rapidly returned to baseline, more than one dose of test compound could be administered to each rat. However, the responses to oral administration of test compounds were of a prolonged duration and therefore only a single dose could be administered to each rat.
A comparison of the area under the bradycardia vs. time curve (AUC) following intravenous administration with the AUC following oral administration was used as a measure of oral bioavailability.

[2] = tested on: guinea pig isolated spontaneously beating heart; assay: Guinea pig isolated spontaneously beating heart (Langendorff): heart rate and AV interval
Protocol: (§1) Guinea pig isolated hearts were prepared according to the method of Langendorff in which the coronary vasculature was perfused in a retrograde fashion at constant pressure via the aorta. Compound A was administered to the spontaneously beating hearts by infusion into the perfusion line supplying buffer to the coronary vasculature. The concentration of Compound A was adjusted by changes in the infusion rate and/or changes in the concentration of infusion solutions. The concentration of Compound A present in the perfusate was calculated by dividing the rate of Compound A infused by the coronary flow rate. Spontaneously beating heart rate and AV interval were recorded.

[3] = tested on: guinea pig isolated heart; assay: Guinea pig isolated electrically paced heart: effect of heart rate on AV interval and heart block
Protocol: as §1
Guinea pig isolated hearts were prepared according to the methods described in Example 5. In the first portion of the experiment designed to determine the effect of heart rate on the negative dromotropic activity of Compound A, hearts were allowed to beat spontaneously or electrically paced either at 200 beats per minute (approximately 20% above the spontaneous rate) or at 300-360 beats per minute (approximately 80% above the spontaneous rate). Atrioventricular (AV) conduction interval (AV interval) was determined as the time from the atrial stimulus to the beginning of ventricular depolarization. The AV interval measurements were performed at each pacing rate with increased concentrations of Compound A as described in Example 5. Upon electrical pacing at 200 beats per minute, Compound A at a mean concentration of 3.9 nM produced a mean maximal 58% increase in AV interval, and heart block at a mean minimal concentration of 5.1 nM. […] The results are summarized in the table below, with data from spontaneously beating hearts included for comparative purposes: […]

[4] = tested on: guinea pig isolated heart; assay: Guinea pig isolated heart model of paroxsymal supraventricular tachycardia (200/300/200 bpm pacing)
Protocol: Guinea pig isolated hearts were prepared according to the methods described in Example 5. In the first portion of the experiment designed to determine the effect of heart rate on the negative dromotropic activity of Compound A, hearts were allowed to beat spontaneously or electrically paced either at 200 beats per minute (approximately 20% above the spontaneous rate) or at 300-360 beats per minute (approximately 80% above the spontaneous rate). Atrioventricular (AV) conduction interval (AV interval) was determined as the time from the atrial stimulus to the beginning of ventricular depolarization. The AV interval measurements were performed at each pacing rate with increased concentrations of Compound A as described in Example 5. Upon electrical pacing at 200 beats per minute, Compound A at a mean concentration of 3.9 nM produced a mean maximal 58% increase in AV interval, and heart block at a mean minimal concentration of 5.1 nM. […] The results are summarized in the table below, with data from spontaneously beating hearts included for comparative purposes:
Using the experimental conditions described in Example 6, individual hearts were paced at 200 bpm for one minute followed abruptly by one minute of pacing at 300 bpm, after which the pacing rate was returned to 200 bpm. The 300 bpm pacing cycle was intended to simulate an episode of supraventricular tachycardia. This pacing sequence was conducted in the presence of vehicle and in the presence of increasing concentrations of Compound A. The results are expressed in FIG. 2. Compound A, at a mean concentration of 2 nM that had little effect on AV interval at 200 bpm induced AV block within 30 seconds during the 300 bpm episode.

[5] = heart rate spontaneous (appro. 170 bpm)
[6] = spontaneously beating guinea pig heart

With `CCNC(=O)[C@H]1O[C@@H](n2cnc3c(NC4CCCC4)ncnc32)[C@H](O)[C@@H]1O` [Compound A, ethyl N^6-cyclopentyladenosine-5′-uronamide] as the compound, how does the bioavailability [1] read?
Its bioavailability is 53%.

What about the EC50 ([2]; Cavia porcellus, spontaneously beating guinea pig heart, read-out: EC50 for decrease in heart rate) of the same compound?
Its EC50 is 3.2 nM.

What about the “Mean Concentration of Compound A Required to Produce Maximal AV Interval” value [2, 5] of the same compound?
Its value is 11.7 nM.

And the “Mean Minimal Concentration of Compound A Required to Produce Heart Block” value (from here on “Mean Minimal Concentration”) [2, 5]?
Its value is 13 nM.

What about the “maximal decrease in heart rate” value [2, 6] of the same compound?
Its value is 58%.

And the “maximal increase in AV interval over basal values” [2, 6]?
Its value is 34%.

What about the “mean maximal increase in AV interval” value ([3]; paced at 200 beats per minute, at 3.9 nM) of the same compound?
Its value is 58%.

What about the “Mean Concentration of Compound A Required to Produce Maximal AV Interval” value ([3]; paced at 200 bpm) of the same compound?
The value was 3.9 nM.

What about the “Mean Minimal Concentration” value ([3]; paced at 200 bpm) of the same compound?
The value was 5.1 nM.

And the “mean maximal increase in AV interval” value ([3]; paced at 300-360 beats per minute, at 1.45 nM)?
The value was 20%.

And the “Mean Concentration of Compound A Required to Produce Maximal AV Interval” value ([3]; paced at 300-360 bpm)?
The value was 1.45 nM.

And the “Mean Minimal Concentration” value ([3]; paced at 300-360 bpm)?
Its value is 2.1 nM.

What about the “effect on AV interval at 200 bpm pacing” value ([4]; 2 nM, 200 bpm pacing before the episode) of the same compound?
The value was “little effect”.

What about the “time to AV block during the 300 bpm episode” value ([4]; 2 nM, 300 bpm pacing) of the same compound?
The value was no more than 30 s.

What about the “AV interval when pacing was returned to 200 bpm” value ([4]; 2 nM, after the 300 bpm episode) of the same compound?
Its value is “returned to near normal values”.

What about the “mean concentration inducing AV block during the 300 bpm pacing episode” value ([4]; PSVT model, 300 bpm episode) of the same compound?
The value was 2 nM.

Reference: US6784165B1, “Treatment of heart rhythm disturbances with N6-substituted-5′-(N-substituted) carboxamidoadenosines” (Aderis Pharmaceuticals, Inc., priority 1999, dated 2004)
